Series [1] concerns the target T1, hERG (Kv11.1, KCNH2) (Homo sapiens, UniProt Q12809). Nature of the series: in vitro.
Description: MMV: Malaria Box compounds were tested for inhibition of the human ether a go-go related gene (hERG), Kv11.1 channel, using IonWorks 384-well patch clamp electrophysiology at 1.1uM (3 independent assay plates up to 12 cells per concentration).
The target in series [2] is T1, hERG (Kv11.1, KCNH2). Nature of the series: in vitro. This is another data set of the same source.
Description: MMV: Malaria Box compounds were tested for inhibition of the human ether a go-go related gene (hERG), Kv11.1 channel, using IonWorks 384-well patch clamp electrophysiology at 11.1uM (3 independent assay plates up to 12 cells per concentration).

The source made the active and inactive calls. No rule for the calls is given here.

T1 sequence (Q12809 whole entry): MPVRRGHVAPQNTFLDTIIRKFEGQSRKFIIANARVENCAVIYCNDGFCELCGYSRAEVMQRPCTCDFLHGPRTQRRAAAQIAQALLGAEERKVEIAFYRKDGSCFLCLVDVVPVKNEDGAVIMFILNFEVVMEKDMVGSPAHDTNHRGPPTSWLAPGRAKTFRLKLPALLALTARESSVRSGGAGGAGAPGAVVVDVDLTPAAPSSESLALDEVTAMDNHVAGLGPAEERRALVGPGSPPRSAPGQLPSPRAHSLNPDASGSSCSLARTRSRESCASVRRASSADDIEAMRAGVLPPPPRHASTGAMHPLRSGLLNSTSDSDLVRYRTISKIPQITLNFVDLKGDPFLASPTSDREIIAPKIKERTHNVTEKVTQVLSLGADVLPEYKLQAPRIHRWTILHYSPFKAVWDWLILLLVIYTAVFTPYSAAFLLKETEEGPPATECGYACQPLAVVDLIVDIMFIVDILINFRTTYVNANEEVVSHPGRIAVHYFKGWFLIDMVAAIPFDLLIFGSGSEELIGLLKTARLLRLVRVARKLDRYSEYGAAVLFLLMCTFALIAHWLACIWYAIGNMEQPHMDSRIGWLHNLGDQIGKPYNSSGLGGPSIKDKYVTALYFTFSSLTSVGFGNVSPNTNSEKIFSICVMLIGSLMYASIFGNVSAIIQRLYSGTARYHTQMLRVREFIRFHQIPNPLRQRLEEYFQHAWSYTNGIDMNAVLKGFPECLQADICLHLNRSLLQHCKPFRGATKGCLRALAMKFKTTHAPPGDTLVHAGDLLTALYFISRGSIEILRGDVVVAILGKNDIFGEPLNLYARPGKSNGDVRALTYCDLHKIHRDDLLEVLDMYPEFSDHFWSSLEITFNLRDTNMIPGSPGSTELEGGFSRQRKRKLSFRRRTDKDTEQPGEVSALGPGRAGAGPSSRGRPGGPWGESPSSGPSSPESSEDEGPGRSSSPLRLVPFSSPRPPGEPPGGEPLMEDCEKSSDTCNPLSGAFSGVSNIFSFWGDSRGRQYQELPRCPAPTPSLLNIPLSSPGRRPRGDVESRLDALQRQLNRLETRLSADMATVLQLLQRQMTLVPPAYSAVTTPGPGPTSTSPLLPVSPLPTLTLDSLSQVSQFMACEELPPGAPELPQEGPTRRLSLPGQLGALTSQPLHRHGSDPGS

For `Cc1c(C)n(CC(O)CNC2CCCCC2C)c2ccccc12` (stereo not given), the inhibition at 1.1 µM against hERG (Kv11.1, KCNH2) [1] was -10%. The inhibition at 11.1 µM at hERG (Kv11.1, KCNH2) [2] is 20% (inactive).

`O=C(Nc1ccc(Cl)c(Cl)c1)Nc1ccc(Cl)c(Cl)c1`: on hERG (Kv11.1, KCNH2) [1], the inhibition at 1.1 µM was 15%. In addition, the inhibition at 11.1 µM at hERG (Kv11.1, KCNH2) [2] is 103% (active).

Turning to `CCC(O)c1ccc(Br)cc1NC(=O)c1cccc(Cl)c1` (stereo not given), the inhibition at 1.1 µM against hERG (Kv11.1, KCNH2) [1] came out at 13%. Moreover, the inhibition at 11.1 µM at hERG (Kv11.1, KCNH2) [2] is 22% (inactive).

Regarding `Cc1ccc2nc(C)cc(Nc3cccc(C(F)(F)F)c3)c2c1`, the inhibition at 1.1 µM against hERG (Kv11.1, KCNH2) [1] came out at 48%. Further, the inhibition at 11.1 µM at hERG (Kv11.1, KCNH2) [2] is 106% (active).

Regarding `COc1ccc(-c2nc3cc(Cc4ccc5[nH]c(-c6ccc(OC)cc6)nc5c4)ccc3[nH]2)cc1`, on hERG (Kv11.1, KCNH2) [1], the inhibition at 1.1 µM was -7%. Also, on hERG (Kv11.1, KCNH2) [2], the inhibition at 11.1 µM is -1% (inactive).

Consider `COc1ccc(/C=C2/SC(=Nc3ccccc3)NC2=O)cc1`, for which the inhibition at 1.1 µM on hERG (Kv11.1, KCNH2) [1] stood at 12%. Besides, the inhibition at 11.1 µM against hERG (Kv11.1, KCNH2) [2] is 27%.

In the case of `CCCCCC(=O)N1c2ccccc2N=C2CC(c3ccc(OC)c(OC)c3)CC(O)=C2C1c1ccc(C(F)(F)F)cc1` (stereo not given), the inhibition at 1.1 µM against hERG (Kv11.1, KCNH2) [1] stood at 9%. The inhibition at 11.1 µM on hERG (Kv11.1, KCNH2) [2] was 23% (inactive).

`COc1cccc(C(=O)Nc2ccc(-c3nc4ccccc4[nH]3)cc2)c1`: the inhibition at 1.1 µM on hERG (Kv11.1, KCNH2) [1] amounted to 4%. Moreover, the inhibition at 11.1 µM at hERG (Kv11.1, KCNH2) [2] was 5% (inactive).

On to `Clc1ccc2c(N3CCCC3)ccnc2c1`, for which the inhibition at 1.1 µM against hERG (Kv11.1, KCNH2) [1] came to 38%. Besides, on hERG (Kv11.1, KCNH2) [2], the inhibition at 11.1 µM is 83% (active).

In the case of `CC(=O)Nc1nnc(SCc2c(C)cc(C(C)(C)C)cc2C)s1`, the inhibition at 1.1 µM against hERG (Kv11.1, KCNH2) [1] was 0%. Also, the inhibition at 11.1 µM at hERG (Kv11.1, KCNH2) [2] is 6% (inactive).

`CCOC(=O)c1cnc2c(C)cc(C)cc2c1Nc1ccc(OC)c(OC)c1`: the inhibition at 1.1 µM at hERG (Kv11.1, KCNH2) [1] amounted to 26%. On hERG (Kv11.1, KCNH2) [2], the inhibition at 11.1 µM is 18% (inactive).

For the molecule `O=C(NCc1ccco1)C1CCN(S(=O)(=O)c2ccc(Br)cc2)CC1`, on hERG (Kv11.1, KCNH2) [1], the inhibition at 1.1 µM came to 21%. Also, the inhibition at 11.1 µM against hERG (Kv11.1, KCNH2) [2] stood at 34%.

In the case of `O=C(Nc1ccc(Cl)cc1C(=O)Nc1ccncc1)c1ccc(Cl)cc1Cl`, the inhibition at 1.1 µM on hERG (Kv11.1, KCNH2) [1] was determined as 4%. For the same molecule, the inhibition at 11.1 µM at hERG (Kv11.1, KCNH2) [2] was determined as 39%.

Regarding `CCn1c2c(c(=N)c3c1CCC3)CCCC2`, at hERG (Kv11.1, KCNH2) [1], the inhibition at 1.1 µM came out at 48%. Also, the inhibition at 11.1 µM at hERG (Kv11.1, KCNH2) [2] was 104% (active).

For `CCCCCCC(O)(c1ccc(F)cc1)C(CN1CCOCC1)c1ccccc1` (stereo not given), the inhibition at 1.1 µM on hERG (Kv11.1, KCNH2) [1] came to 0%. The inhibition at 11.1 µM at hERG (Kv11.1, KCNH2) [2] is 71% (active).

For the molecule `O=C(NC1CCN(Cc2ccccc2)CC1)c1cc(-c2ccncc2)nc2ccc(Cl)cc12`, the inhibition at 1.1 µM against hERG (Kv11.1, KCNH2) [1] was 14%. Besides, the inhibition at 11.1 µM at hERG (Kv11.1, KCNH2) [2] is 72% (active).

As to `CCC1(C)CC(CCNCc2ccccc2O)(c2ccc(C)cc2)CCO1` (stereo not given), the inhibition at 1.1 µM against hERG (Kv11.1, KCNH2) [1] is 2%. Besides, on hERG (Kv11.1, KCNH2) [2], the inhibition at 11.1 µM was 73% (active).

Turning to `CCN(CC)CCn1c(=N)n(CC(O)c2ccc(Cl)c(Cl)c2)c2ccccc21` (stereo not given), the inhibition at 1.1 µM against hERG (Kv11.1, KCNH2) [1] stood at 36%. The inhibition at 11.1 µM on hERG (Kv11.1, KCNH2) [2] was 86% (active).

For the molecule `COCCNCC(O)Cn1c2ccc(Cl)cc2c2cc(Cl)ccc21` (stereo not given), on hERG (Kv11.1, KCNH2) [1], the inhibition at 1.1 µM stood at 14%. Also, the inhibition at 11.1 µM at hERG (Kv11.1, KCNH2) [2] was 83% (active).

As for `Cc1ccc(C(=O)c2oc3ccc4c(C)cc(=O)oc4c3c2C)cc1`, on hERG (Kv11.1, KCNH2) [1], the inhibition at 1.1 µM is -3%. Moreover, the inhibition at 11.1 µM on hERG (Kv11.1, KCNH2) [2] was 7% (inactive).

Consider `CC1(c2ccccc2)Nc2ccccc2-c2nc3ccccc3n21` (stereo not given), for which the inhibition at 1.1 µM at hERG (Kv11.1, KCNH2) [1] was -10%. For the same molecule, the inhibition at 11.1 µM against hERG (Kv11.1, KCNH2) [2] came out at 29%.

As to `Oc1c(C(Nc2ccccn2)c2cccc(Oc3ccccc3)c2)ccc2cccnc12` (stereo not given), the inhibition at 1.1 µM against hERG (Kv11.1, KCNH2) [1] stood at 20%. Besides, the inhibition at 11.1 µM on hERG (Kv11.1, KCNH2) [2] is 97% (active).

Turning to `COC(=O)c1ccc(C2C3=C(O)CC(c4ccc(F)cc4)CC3=Nc3ccccc3N2C(=O)c2ccccc2)cc1` (stereo not given), the inhibition at 1.1 µM at hERG (Kv11.1, KCNH2) [1] was 98%. Besides, on hERG (Kv11.1, KCNH2) [2], the inhibition at 11.1 µM was determined as 105%.

Consider `CCOC(=O)C1(Cc2ccccc2)CCN(Cc2cccc(OC)c2O)CC1`, for which the inhibition at 1.1 µM against hERG (Kv11.1, KCNH2) [1] was 18%. Further, the inhibition at 11.1 µM on hERG (Kv11.1, KCNH2) [2] was 80% (active).

Turning to `COc1cccc(O)c1CN1CCC2(CCCN(Cc3ccc(F)cc3)C2)C1` (stereo not given), the inhibition at 1.1 µM against hERG (Kv11.1, KCNH2) [1] was 0%. Moreover, the inhibition at 11.1 µM on hERG (Kv11.1, KCNH2) [2] was 86% (active).

What is called inhibition is the relative decrease from the control value, in per cent.

(Values after ChEMBL document CHEMBL3301458, “MMV Malaria Box hERG screening”.)
